Values quoted from earlier work as cited in patent US20110201631A1, “PHARMACEUTICAL FORMULATIONS COMPRISING PEMETREXED” (DR. REDDY'S LABORATORIES LTD., priority 2008, published 2011).

Conditions: U.S. Pat. No. 7,138,521

## Nc1nc2[nH]cc(CCc3ccc(C(=O)N[C@@H](CCC(=O)[O-])C(=O)[O-])cc3)c2c(=O)[nH]1.[Na+].[Na+] [heptahydrate, L-Glutamic acid, N-[4-[2-(2-amino-4,7-dihydro-4-oxo-1H-pyrrolo[2,3-c]pyrimidin-5-yl)ethyl]benzoyl]-, disodium salt, heptahydrate]
  Stability of crystal form relative to 2.5 hydrate: much more stable than the previously known 2.5 hydrate
